# Laboratory results published in ChEMBL document CHEMBL5120849, “Identification of novel and potent PROTACs targeting FAK for non-small cell lung cancer: Design, synthesis, and biological study” (Eur J Med Chem, 2022).
# Legend:
# [1] = system: A549; test: cells; conditions: Homo sapiens, A549, 72 h
# [2] = system: A549; test: Antiinvasive activity in human A549 cells assessed as inhibition of cell invasion by measuring reduction in cell count incubated for 72 hrs by crystal violet staining based transwell assay; assay type: functional; conditions: dose 0.2-1.8 µM, DDE = dose-dependent effect
# [3] = Stability in pooled human plasma assessed as parent compound remaining at 2 uM measured after 60 mins by LC-MS/MS analysis (reference value: 100%); assay type: ADME, cell-free; conditions: read-out: Stability
# [4] = Stability in pooled human plasma assessed as parent compound remaining at 2 uM measured after 120 mins by LC-MS/MS analysis (reference value: 100%); assay type: ADME, cell-free; conditions: read-out: Stability
# [5] = system: A549; test: Inhibition of cell migration in human A549 cells assessed as wound recovery at 0.2 uM measured after 72 hrs by inverted microscopic analysis (reference value: 53.4 %); assay type: functional; design: scale not given: the % may be the effect or the level left
# [6] = Stability in pooled human plasma assessed as parent compound remaining at 2 uM measured after 10 mins by LC-MS/MS analysis (reference value: 100%); assay type: ADME, cell-free; conditions: read-out: Stability
# [7] = Stability in pooled human plasma assessed as parent compound remaining at 2 uM measured after 30 mins by LC-MS/MS analysis (reference value: 100%); assay type: ADME, cell-free; conditions: read-out: Stability
# [8] = Apparent permeability across apical to basolateral side in human Caco-2 cells at 2 uM incubated for 2 hrs by LC-MS/MS analysis; assay type: ADME, cell-based
# [9] = system: A549; test: Inhibition of cell migration in human A549 cells assessed as wound recovery at 0.6 uM measured after 24 hrs by inverted microscopic analysis (reference value: 28.2 %); assay type: functional; design: scale not given: the % may be the effect or the level left
# [10] = system: A549; test: Inhibition of cell migration in human A549 cells assessed as wound recovery at 0.6 uM measured after 72 hrs by inverted microscopic analysis (reference value: 53.4 %); assay type: functional; design: scale not given: the % may be the effect or the level left
# [11] = system: A549; test: Inhibition of cell migration in human A549 cells assessed as wound recovery at 1.8 uM measured after 24 hrs by inverted microscopic analysis (reference value: 28.2 %); assay type: functional; design: scale not given: the % may be the effect or the level left
# [12] = system: A549; test: Inhibition of cell migration in human A549 cells assessed as wound recovery at 1.8 uM measured after 72 hrs by inverted microscopic analysis (reference value: 53.4 %); assay type: functional; design: scale not given: the % may be the effect or the level left
# [13] = Stability in pooled human plasma assessed as half life at 2 uM measured upto 120 mins by LC-MS/MS analysis; assay type: ADME, cell-free
# [14] = Apparent permeability across basolateral to apical side in human Caco-2 cells at 2 uM incubated for 2 hrs by LC-MS/MS analysis; assay type: ADME, cell-based
# [15] = system: A549; test: Inhibition of cell migration in human A549 cells assessed as wound recovery at 0.2 uM measured after 24 hrs by inverted microscopic analysis (reference value: 28.2 %); assay type: functional; design: scale not given: the % may be the effect or the level left
compound,measurement,setting,value
CNC(=O)c1ccccc1Nc1nc(Nc2ccc(N3CCN(CCCCCCCC(=O)NCCNc4cccc5c4C(=O)N(C4CCC(=O)NC4=O)C5=O)CC3)cc2OC)ncc1Cl (configuration not stated),IC50,[1],330 nM
CNC(=O)c1ccccc1Nc1nc(Nc2ccc(N3CCN(CCCCCCCCNC(=O)CNc4cccc5c4C(=O)N(C4CCC(=O)NC4=O)C5=O)CC3)cc2OC)ncc1Cl (configuration not stated),IC50,[1],2250 nM
CNC(=O)c1ccccc1Nc1nc(Nc2ccc(N3CCN(CCCCC(=O)Nc4cccc5c4CN(C4CCC(=O)NC4=O)C5=O)CC3)cc2OC)ncc1Cl (configuration not stated),IC50,[1],270 nM
CNC(=O)c1ccccc1Nc1nc(Nc2ccc(N3CCN(CCCCCC(=O)Nc4cccc5c4C(=O)N(C4CCC(=O)NC4=O)C5=O)CC3)cc2OC)ncc1Cl (configuration not stated),IC50,[1],260 nM
CNC(=O)c1ccccc1Nc1nc(Nc2ccc(N3CCN(CCCCCCC(=O)Nc4cccc5c4C(=O)N(C4CCC(=O)NC4=O)C5=O)CC3)cc2OC)ncc1Cl (configuration not stated),IC50,[1],790 nM
CNC(=O)c1ccccc1Nc1nc(Nc2ccc(N3CCOCC3)cc2OC)ncc1Cl,IC50,[1],1310 nM
same,Activity,[2],Dde
CNC(=O)c1ccccc1Nc1nc(Nc2ccc(N3CCN(CCCCC(=O)Nc4ccc5c(c4)C(=O)N(C4CCC(=O)NC4=O)C5=O)CC3)cc2OC)ncc1Cl (configuration not stated),IC50,[1],3420 nM
CNC(=O)c1ccccc1Nc1nc(Nc2ccc(N3CCN(CCCCCC(=O)NCCNc4cccc5c4C(=O)N(C4CCC(=O)NC4=O)C5=O)CC3)cc2OC)ncc1Cl (configuration not stated),IC50,[1],310 nM
CNC(=O)c1ccccc1Nc1nc(Nc2ccc(N3CCN(CCCCCCCCC(=O)Nc4cccc5c4C(=O)N(C4CCC(=O)NC4=O)C5=O)CC3)cc2OC)ncc1Cl (configuration not stated),IC50,[1],1350 nM
CNC(=O)c1ccccc1Nc1nc(Nc2ccc(N3CCN(CCCCC(=O)NCCNc4cccc5c4C(=O)N(C4CCC(=O)NC4=O)C5=O)CC3)cc2OC)ncc1Cl (configuration not stated),IC50,[1],4010 nM
CNC(=O)c1ccccc1Nc1nc(Nc2ccc(N3CCN(CCCCC(=O)Nc4cccc5c4C(=O)N(C4CCC(=O)NC4=O)C5=O)CC3)cc2OC)ncc1Cl (configuration not stated),"remaining at 1 h, 2 µM",[3],98.3%
same,"remaining at 2 h, 2 µM",[4],86.2%
same,Activity,[5],42.4%
same,"remaining at 10 min, 2 µM",[6],112%
same,"remaining at 0.5 h, 2 µM",[7],96.6%
same,"Papp A→B at 2 h, 2 µM",[8],1.4 ×10⁻⁶ cm/s
same,Activity,[9],11.1%
same,Activity,[10],33.3%
same,Activity,[11],3.6%
same,IC50,[1],140 nM
same,Activity,[12],21.7%
same,half-life at 2 µM,[13],> 4.82 h
same,"Papp B→A at 2 h, 2 µM",[14],4.7 ×10⁻⁶ cm/s
same,Activity,[15],13.7%
same,Activity,[2],Dde
CNC(=O)c1ccccc1Nc1nc(Nc2ccc(N3CCN(CCCCCCCCCC(=O)Nc4cccc5c4C(=O)N(C4CCC(=O)NC4=O)C5=O)CC3)cc2OC)ncc1Cl (configuration not stated),IC50,[1],3580 nM
